This is an account of results in patent publication US20260347338A1, “PYRIMIDINE/PYRIDINE DERIVATIVES OR SALTS THEREOF AND PHARMACEUTICAL COMPOSITIONS COMPRISING THE SAME” (YUHAN CORPORATION, priority 2023, published 2026).

Where a name gives a salt, the structure may show the parent alone.

For the assay, the target named is T1, human recombinant HPK1 (Homo sapiens, UniProt Q92918).
T1 construct: purchased BPS Bioscience
T1 sequence (Q92918 whole entry): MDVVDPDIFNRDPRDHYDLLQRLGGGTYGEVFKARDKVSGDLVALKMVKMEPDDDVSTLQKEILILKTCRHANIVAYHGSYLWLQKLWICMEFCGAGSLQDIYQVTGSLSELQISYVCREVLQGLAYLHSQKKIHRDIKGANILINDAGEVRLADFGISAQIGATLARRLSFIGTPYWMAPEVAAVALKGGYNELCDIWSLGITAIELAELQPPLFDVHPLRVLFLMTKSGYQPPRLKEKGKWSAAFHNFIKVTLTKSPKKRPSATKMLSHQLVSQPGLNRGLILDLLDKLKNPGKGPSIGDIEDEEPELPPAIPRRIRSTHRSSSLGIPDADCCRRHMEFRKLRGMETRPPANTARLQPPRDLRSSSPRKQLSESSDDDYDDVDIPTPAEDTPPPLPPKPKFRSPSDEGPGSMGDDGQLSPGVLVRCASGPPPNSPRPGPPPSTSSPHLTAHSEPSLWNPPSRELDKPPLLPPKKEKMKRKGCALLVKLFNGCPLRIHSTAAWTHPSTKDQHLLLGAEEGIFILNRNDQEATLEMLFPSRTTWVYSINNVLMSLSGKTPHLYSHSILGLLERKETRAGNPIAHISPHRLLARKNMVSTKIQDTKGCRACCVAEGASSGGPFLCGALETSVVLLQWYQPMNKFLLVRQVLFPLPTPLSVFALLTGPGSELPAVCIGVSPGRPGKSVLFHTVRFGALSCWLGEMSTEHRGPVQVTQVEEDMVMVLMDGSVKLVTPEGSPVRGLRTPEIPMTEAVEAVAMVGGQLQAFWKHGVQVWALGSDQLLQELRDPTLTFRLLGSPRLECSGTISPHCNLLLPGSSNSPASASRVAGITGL
Nature of the assay: Inhibitory activity against human recombinant HPK1 (TR-FRET). The conditions noted are these: ULight-p70S6K peptide, ATP at Km, room temperature, 1 hour, 0.32 to 1000 nM compound. Format: biochemical. The gist of the method: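 IC50 classes A–D use 10, 50 and 100 nM cut-offs, derived from TR-FRET signal inhibition relative to DMSO controls. Human recombinant HPK1 phosphorylated ULight-p70S6K peptide at Km ATP for 1 h, room temperature, pH 7.4; test range 0.32–1000 nM final, detection with Eu-labelled antibody after EDTA quench.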
On the technique in general: TR-FRET usually uses a lanthanide donor and a delayed reading to cut background.
Regarding `COC(=O)c1ccc(Nc2cc(N3CCC[C@H](N)C3)c(-c3cnn(C4CCOCC4)c3)cn2)nc1-c1c(F)cccc1OC` [Example 71, methyl 6-((4-((S)-3-aminopiperidin-1-yl)-5-(1-(tetrahydro-2H-pyran-4-yl)-1H-pyrazol-4-yl)pyridin-2-yl)amino)-2-(2-fluoro-6-methoxyphenyl)nicotinate hydrochloride], the IC50 (usually the concentration needed to halve the response being measured) is no more than 10 nM.
For `COc1cccc(F)c1-c1nccc(Nc2cc(N3CCC[C@H](O)C3)c(-c3cnn(C(F)F)c3)cn2)n1` [Example 72, (S)-1-(5-(1-(difluoromethyl)-1H-pyrazol-4-yl)-2-((2-(2-fluoro-6-methoxyphenyl)pyrimidin-4-yl)amino)pyridin-4-yl)piperidin-3-ol] the value was no more than 10 nM; for `COc1cccc(F)c1-c1nccc(Nc2cc(N3CCC[C@H](N)C3)c(-c3cnn(C(F)F)c3)cn2)n1` [Example 73, (S)-N-(4-(3-aminopiperidin-1-yl)-5-(1-(difluoromethyl)-1H-pyrazol-4-yl)pyridin-2-yl)-2-(2-fluoro-6-methoxyphenyl)pyrimidin-4-amine hydrochloride], no more than 10 nM.
For `COc1cccc(F)c1-c1nccc(Nc2cc(N3CCC[C@H](N)C3)c(-c3cnn(C4CCN(C)CC4)c3)cn2)n1` [Example 74, (S)-N-(4-(3-aminopiperidin-1-yl)-5-(1-(1-methylpiperidin-4-yl)-1H-pyrazol-4-yl)pyridin-2-yl)-2-(2-fluoro-6-methoxyphenyl)pyrimidin-4-amine hydrochloride] the value was no more than 10 nM.
For `COc1cccc(F)c1-c1nc(Nc2cc(N3CCC[C@H](O)C3)c(-c3cnn(C4CCOCC4)c3)cn2)ccc1Cl` [Example 75, (3S)-1-(2-((5-chloro-6-(2-fluoro-6-methoxyphenyl)pyridin-2-yl)amino)-5-(1-(tetrahydro-2H-pyran-4-yl)-1H-pyrazol-4-yl)pyridin-4-yl)piperidin-3-ol] the value was no more than 10 nM.
On to `COc1cccc(F)c1-c1nc(Nc2cc(N3CCC[C@H](N)C3)c(-c3cnn(C(F)F)c3)cn2)ccc1F` [Example 76, 4-((S)-3-aminopiperidin-1-yl)-5-(1-(difluoromethyl)-1H-pyrazol-4-yl)-N-(5-fluoro-6-(2-fluoro-6-methoxyphenyl)pyridin-2-yl)pyridin-2-amine hydrochloride], for which the IC50 is no more than 10 nM.
For `COc1cccc(F)c1-c1nccc(Nc2cc(N3CCC[C@@H](N)C3)c(-c3cnn(CC(F)(F)F)c3)cn2)n1` [Example 77, (R)-N-(4-(3-aminopiperidin-1-yl)-5-(1-(2,2,2-trifluoroethyl)-1H-pyrazol-4-yl)pyridin-2-yl)-2-(2-fluoro-6-methoxyphenyl)pyrimidin-4-amine hydrochloride] the value was no more than 10 nM; for `COc1cccc(F)c1-c1nccc(Nc2cc(N3CCC[C@H](N)C3)c(-c3cnn(CC(F)(F)F)c3)cn2)n1` [Example 78, (S)-N-(4-(3-aminopiperidin-1-yl)-5-(1-(2,2,2-trifluoroethyl)-1H-pyrazol-4-yl)pyridin-2-yl)-2-(2-fluoro-6-methoxyphenyl)pyrimidin-4-amine hydrochloride], no more than 10 nM.
For `COc1cccc(F)c1-c1nccc(Nc2cc(N3CCC[C@H](N)C3)c(C#CC3CCOCC3)cn2)n1` [Example 79, (S)-N-(4-(3-aminopiperidin-1-yl)-5-((tetrahydro-2H-pyran-4-yl)ethynyl)pyridin-2-yl)-2-(2-fluoro-6-methoxyphenyl)pyrimidin-4-amine hydrochloride] the value was no more than 10 nM; for `N[C@H]1CCCN(c2cc(Nc3ccnc(-c4cccnc4O)n3)ncc2-c2cnn(C3CCOCC3)c2)C1` [Example 80, (S)-3-(4-((4-(3-aminopiperidin-1-yl)-5-(1-(tetrahydro-2H-pyran-4-yl)-1H-pyrazol-4-yl)pyridin-2-yl)amino)pyrimidin-2-yl)pyridin-2-ol hydrochloride], no more than 10 nM.
For `COc1cccc(F)c1-c1nccc(Nc2cc(N3CCC[C@H](O)C3)c(-c3ccc(OC4CCN(C)CC4)cn3)cn2)n1` [Example 81, (S)-1-(6′-((2-(2-fluoro-6-methoxyphenyl)pyrimidin-4-yl)amino)-5-((1-methylpiperidin-4-yl)oxy)-[2,3′-bipyridin]-4′-yl)piperidin-3-ol] the value was greater than 100 nM; for `COc1cccc(F)c1-c1nccc(Nc2cc(N3CCC[C@H](N)C3)c(-c3ccc(C4CCOCC4)nc3)cn2)n1` [Example 82, (S)-4-(3-aminopiperidin-1-yl)-N-(2-(2-fluoro-6-methoxyphenyl)pyrimidin-4-yl)-6′-(tetrahydro-2H-pyran-4-yl)-[3,3′-bipyridin]-6-amine hydrochloride], no more than 10 nM; for `COc1cccc(F)c1-c1nccc(Nc2cc(N3CCC[C@H](N)C3)c(-c3ccc(C4CCN(C)CC4)nc3)cn2)n1` [Example 83, (S)-4-(3-aminopiperidin-1-yl)-N-(2-(2-fluoro-6-methoxyphenyl)pyrimidin-4-yl)-6′-(1-methylpiperidin-4-yl)-[3,3′-bipyridin]-6-amine hydrochloride], no more than 10 nM.
Consider `COc1cccc(F)c1-c1nccc(Nc2cc(N3CCCC(CC(F)(F)F)C3)c(-c3cnn(C4CCOCC4)c3)cn2)n1` (stereo not shown) [Example 84, 2-(2-fluoro-6-methoxyphenyl)-N-(5-(1-(tetrahydro-2H-pyran-4-yl)-1H-pyrazol-4-yl)-4-(3-(2,2,2-trifluoroethyl)piperidin-1-yl)pyridin-2-yl)pyrimidin-4-amine], for which the IC50 fell in the range of 10 to 50 nM.
As for `COc1cccc(F)c1-c1nccc(Nc2cc(N3CCCC(CF)C3)c(-c3cnn(C4CCOCC4)c3)cn2)n1` (stereo not shown) [Example 85, 2-(2-fluoro-6-methoxyphenyl)-N-(4-(3-(fluoromethyl)piperidin-1-yl)-5-(1-(tetrahydro-2H-pyran-4-yl)-1H-pyrazol-4-yl)pyridin-2-yl)pyrimidin-4-amine], the IC50 was no more than 10 nM.
For `COc1cccc(F)c1-c1nccc(Nc2cc(N3CCCC(NC(C)=O)C3)c(-c3cnn(C4CCOCC4)c3)cn2)n1` (stereo not shown) [Example 86, N-(1-(2-((2-(2-fluoro-6-methoxyphenyl)pyrimidin-4-yl)amino)-5-(1-(tetrahydro-2H-pyran-4-yl)-1H-pyrazol-4-yl)pyridin-4-yl)piperidin-3-yl)acetamide] the value was 50 to 100 nM.
For `COc1cccc(F)c1-c1nccc(Nc2cc(N3CCC(C(F)(F)F)CC3)c(-c3cnn(C4CCOCC4)c3)cn2)n1` [Example 87, 2-(2-fluoro-6-methoxyphenyl)-N-(5-(1-(tetrahydro-2H-pyran-4-yl)-1H-pyrazol-4-yl)-4-(4-(trifluoromethyl)piperidin-1-yl)pyridin-2-yl)pyrimidin-4-amine] the value was no more than 10 nM; for `N[C@H]1CCCN(c2cc(Nc3ccnc(-c4cc5nccnc5cc4F)n3)ncc2-c2cnn(C(F)F)c2)C1` [Example 88, (S)-N-(4-(3-aminopiperidin-1-yl)-5-(1-(difluoromethyl)-1H-pyrazol-4-yl)pyridin-2-yl)-2-(7-fluoroquinoxalin-6-yl)pyrimidin-4-amine hydrochloride], no more than 10 nM.
For `N[C@H]1CCCN(c2cc(Nc3ccnc(-c4cc5nccnc5cc4F)n3)ncc2-c2cnn(CC(F)(F)F)c2)C1` [Example 89, (S)-N-(4-(3-aminopiperidin-1-yl)-5-(1-(2,2,2-trifluoroethyl)-1H-pyrazol-4-yl)pyridin-2-yl)-2-(7-fluoroquinoxalin-6-yl)pyrimidin-4-amine hydrochloride] the value was no more than 10 nM.
